From US7763624B2, “Substituted pyrazolo[3,4-d]pyrimidines as ACK-1 and LCK inhibitors” (Amgen Inc., priority 2005, dated 2010)
pIC50, pKi: −log10 of the molar value. Read-outs that look alike come from different tables or passages of the source.

Key:
[1] = molecular target: T1, ACK1 (Homo sapiens, UniProt Q07912); experiment: ACK1 Enzymatic Assay (PGT/autophosphorylation ELISA); format: biochemical
T1 construct: a fusion of an N-terminal (His)6 Tag with amino acids 117 to 489 of ACK1; (His)6 (N); made in house; host or cells: baculovirus infected Hi-5 insect cells
Description: IC50 values of compounds of the invention may be assessed as follows. The ACK1 kinase assay utilizes a protein expressed in baculovirus infected Hi-5 cells (a fusion of an N-terminal (His)6 Tag with amino acids 117 to 489 of ACK1) purified by affinity chromatography on a Ni-NTA column. The substrate for the reaction is ACK1 itself (autophosphorylation) and poly-Glutamic acid-Tyrosine (PGT (4:1), Sigma catalog #PO275). The PGT is coated to Nunc 96 well plates at 80 μg/mL overnight at 4° C. The morning after coating, the plates are washed twice, and […] reaction buffer (10 mM Hepes, pH 7.6; 20 mM MgCl2; 75 mM NaCl, 0.125% TWEEN20 (polyoxyethylene sorbitan monolaurate); 1 mM DTT) with 5 μM ATP are added to each well. Test compounds are added in […] DMSO, and the reaction is started by addition of […] kinase in assay buffer. The reaction proceeds for 2 h at room temperature. Next, the plates are washed four times, and the level of tyrosine phosphorylation in a given well is quantified by standard ELISA assay utilizing a phosphotyrosine antibody (PY20, Pierce).

[2] = test system: C8 cells; experiment: ACK1 Cell Based Assay (survival under low serum, Cytotox One); conditions: read-out: ACK1 Cell-based IC50
Description: ACK1 Cell Based Assay The ACK1 cell based assay is designed to find inhibitors of ACK1 kinase activity which would be prime candidates for the development of anticancer drugs. […] After 20 to 24 h incubation at 37° C. and 5% CO2, cell viability is determined using the Cytotox One kit (Promega) according to the manufacturer's instructions.

[3] = molecular target: T2, LCK (Homo sapiens, UniProt P06239); experiment: LCK-Homogeneous Time Resolved Fluorescent (HTRF) Kinase Assay; format: biochemical
T2 construct: 15 μL of LCK KD GST (225-509) for a final volume of 40 μL; GST
Description: LCK-Homogeneous Time Resolved Fluorescent (HTRF) Kinase Assay
The LCK HTRF assay begins with LCK in the presence of ATP phosphorylating the biotinylated peptide Gastrin. The reaction incubates for 90 min. To quench the assay detection reagents are added which both stop the reaction by diluting out the enzyme and chelating the metals due to the presence of EDTA. Once the detection reagents are added the assay incubates for 30 min to allow for equilibration of the detection reagents.
Buffer conditions are as follows: 50 mM HEPES pH 7.5, 50 mM NaCl, 20 mM MgCl2, 5 mM MnCl2, 2 mM DTT, 0.05% BSA.
The assay is quenched and stopped with 160 μL of a detection reagent. Detection reagents are as follows: Buffer made of 50 mM Tris, pH 7.5, 100 mM NaCl, 3 mM EDTA, 0.05% BSA, 0.1% Tween20.
The assay plate is read in either a Discovery or a RubyStar.

[4] = ACK1-dependent C8 cells, 0.125% FCS, 20 to 24 h

T2 sequence (P06239 225-509): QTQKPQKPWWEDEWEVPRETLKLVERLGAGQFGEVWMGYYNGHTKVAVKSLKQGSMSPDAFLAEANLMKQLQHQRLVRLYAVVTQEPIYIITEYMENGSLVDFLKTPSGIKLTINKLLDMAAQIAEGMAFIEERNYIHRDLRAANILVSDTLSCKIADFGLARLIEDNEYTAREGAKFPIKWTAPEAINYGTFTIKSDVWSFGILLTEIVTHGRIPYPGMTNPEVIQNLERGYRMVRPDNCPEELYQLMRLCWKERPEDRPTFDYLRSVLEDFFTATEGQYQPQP
T1 sequence (Q07912 117-489): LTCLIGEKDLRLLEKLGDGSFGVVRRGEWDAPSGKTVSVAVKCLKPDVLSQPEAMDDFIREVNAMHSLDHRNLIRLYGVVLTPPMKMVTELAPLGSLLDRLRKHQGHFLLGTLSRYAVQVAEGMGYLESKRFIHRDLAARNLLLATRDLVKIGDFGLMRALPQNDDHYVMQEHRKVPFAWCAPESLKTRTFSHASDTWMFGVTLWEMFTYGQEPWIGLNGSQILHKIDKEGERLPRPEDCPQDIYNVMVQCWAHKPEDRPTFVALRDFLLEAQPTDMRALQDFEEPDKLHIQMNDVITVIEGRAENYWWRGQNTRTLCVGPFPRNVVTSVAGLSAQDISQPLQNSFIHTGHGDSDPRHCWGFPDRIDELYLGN

| Molecule | pKi [1] | pIC50 [2] | pKi [3] | pIC50 [2, 4] |
| --- | --- | --- | --- | --- |
| COC(C)(C)CCn1nc(Nc2ccccc2)c2cnc(Nc3ccc(N4CCN(C)CC4)cc3)nc21 [Compound 75] | < 7.00 | < 7.00 | 7.00 to 8.00 |  |
| CCN(CC)CC(O)CCn1nc(Nc2c(C)cccc2C)c2cnc(Nc3ccccc3)nc21 (stereo not drawn) [Compound 44, 1-(diethylamino)-4-(3-(2,6-dimethylphenylamino)-6-(phenylamino)-1H-pyrazolo[3,4-d]pyrimidin-1-yl)butan-2-ol] | < 7.00 |  | > 8.00 | < 7.00 |
| COC(C)(C)CCn1nc(Nc2c(Cl)cccc2Cl)c2ccc(Nc3ccc(N4CCN(C(=O)OCC5c6ccccc6-c6ccccc65)CC4)cc3)cc21 [Compound 81, (9H-Fluoren-9-yl)methyl 4-(4-(3-(2,6-dichlorophenylamino)-1-(3-methoxy-3-methyl-butyl)-1H-indazol-6-ylamino)phenyl)piperazine-1-carboxylate] | 7.00 to 8.00 | < 7.00 | > 8.00 |  |
| C=CCCn1nc(Nc2c(Cl)cccc2Cl)c2cnc(Nc3ccccc3)nc21 [Compound 87, 1-(But-3-enyl)-N^3-(2,6-dichlorophenyl)-N^6-phenyl-1H-pyrazolo[3,4-d]pyrimidine-3,6-diamine] | 7.00 to 8.00 |  | > 8.00 | < 7.00 |
| COC[C@H]1CCCN1CCCn1nc(Nc2c(C)cccc2C)c2ccc(Nc3ccc(N4CCNCC4)cc3)cc21 [Compound 67, (R)—N^3-(2,6-Dimethylphenyl)-1-(3-(2-(methoxymethyl)pyrrolidin-1-yl)propyl)-N^6-(4-piperazin-1-yl)phenyl-1H-indazole-3,6-diamine] | > 8.00 |  | > 8.00 | 7.00 to 8.00 |
| COC(C)(C)CCn1nc(Nc2c(C)cc(F)cc2C)c2cnc(Nc3ccc(N4CCN(C)CC4)cc3)nc21 [Compound 79, N^3-(4-Fluoro-2,6-dimethyl-phenyl)-1-(3-methoxy-3-methyl-butyl)-N^6-[4-(4-methyl-piperazin-1-yl)-phenyl]-1H-pyrazolo[3,4-d]pyrimidine-3,6-diamine] | 7.00 to 8.00 |  | > 8.00 | 7.00 to 8.00 |
| Cc1cccc(C)c1Nc1nn(CCCO)c2nc(Nc3ccccc3)ncc12 [Compound 37, 3-(3-(2,6-dimethylphenylamino)-6-(phenylamino)-1H-pyrazolo[3,4-d]pyrimidin-1-yl)propan-1-ol] | 7.00 to 8.00 |  | > 8.00 | < 7.00 |
| N^3-(2,6-dichlorophenyl)-1-(3-methoxy-3-methylbutyl)-N^6-[4-(4-methyl-piperazin-1-yl)-phenyl]-1H-indazole-3,6-diamine [Compound 80] | > 8.00 |  | > 8.00 | 7.00 to 8.00 |
| COCCOc1ccc(Nc2ncc3c(Nc4c(C)cccc4C)nn(CCN4CCOCC4)c3n2)cc1 [Compound 52, N^3-(2,6-Dimethyl-phenyl)-N^6-[4-(2-methoxy-ethoxy)-phenyl]-1-(2-morpholin-4-yl-ethyl)-1H-pyrazolo[3,4-d]pyrimidine-3,6-diamine] | 7.00 to 8.00 |  | > 8.00 | < 7.00 |
| OCC(O)CCn1nc(Nc2c(Cl)cccc2Cl)c2cnc(Nc3ccccc3)nc21 (stereo not drawn) [Compound 88, 4-(3-(2,6-dichlorophenylamino)-6-(phenylamino)-1H-pyrazolo[3,4-d]pyrimidin-1-yl)butane-1,2-diol] | 7.00 to 8.00 |  | > 8.00 | 7.00 to 8.00 |
| Cc1cccc(C)c1Nc1nn(CCCN(C)C)c2nc(Nc3ccccc3)ncc12 [Compound 38, 1-(3-(Dimethylamino)propyl)-N^3-(2,6-dimethylphenyl)-N^6-phenyl-1H-pyrazolo[3,4-d]pyrimidine-3,6-diamine] | 7.00 to 8.00 |  | > 8.00 | 7.00 to 8.00 |
| Cc1cccc(C)c1Nc1nn(CCC(O)CN(C)C)c2nc(Nc3ccccc3)ncc12 (stereo not drawn) [Compound 43, 1-(dimethylamino)-4-(3-(2,6-dimethylphenylamino)-6-(phenylamino)-1H-pyrazolo[3,4-d]pyrimidin-1-yl)butan-2-ol] | 7.00 to 8.00 |  | > 8.00 | < 7.00 |
| COC(C)(C)CCn1nc(Nc2c(C)cccc2C)c2cnc(Nc3ccc(OCCCN4CCCCC4)c(F)c3)nc21 [Compound 57] | 7.00 to 8.00 |  | 7.00 to 8.00 | 7.00 to 8.00 |
| 2-(3-(2,6-dimethylphenylamino)-6-(phenylamino)-1H-indazol-1-yl)-1-(piperazin-1-yl)ethanone [Compound 71] | < 7.00 |  | > 8.00 | < 7.00 |
| Cc1cccc(C)c1Nc1nn(CCC(O)CO)c2nc(Nc3ccccc3)ncc12 (stereo not drawn) [Compound 34, 4-(3-(2,6-dimethylphenylamino)-6-(phenylamino)-1H-pyrazolo[3,4-d]pyrimidin-1-yl)butane-1,2-diol] | 7.00 to 8.00 |  | > 8.00 | 7.00 to 8.00 |
| Cc1cccc(C)c1Nc1nn(CCN2CCOCC2)c2nc(Nc3ccccc3)ncc12 [Compound 51, N^3-(2,6-Dimethyl-phenyl)-1-(2-morpholin-4-yl-ethyl)-N^6-phenyl-1H-pyrazolo[3,4-d]pyrimidine-3,6-diamine] | 7.00 to 8.00 | < 7.00 | > 8.00 |  |
| COC(C)(C)CCn1nc(Nc2c(C)cccc2C)c2ccc(Nc3ccc(N4CC(C)NC(C)C4)cc3)cc21 (stereo not drawn) [Compound 60, N^3-(2,6-Dimethylphenyl)-1-N^6-(4-(3,5-dimethylpiperazin-1-yl)phenyl)-1-(3-methoxy-3-methylbutyl)-1H-indazole-3,6-diamine] | > 8.00 |  | > 8.00 | 7.00 to 8.00 |
| C=CCCn1nc(Nc2c(C)cccc2C)c2cnc(Nc3ccccc3)nc21 [Compound 33, 1-(but-3-enyl)-N^3-(2,6-dimethylphenyl)-N^6-phenyl-1H-pyrazolo[3,4-d]pyrimidine-3,6-diamine] | 7.00 to 8.00 |  | > 8.00 | < 7.00 |
| COC(C)(C)CCn1nc(Nc2c(C)cccc2C)c2cnc(Nc3ccc(N4CCN(C)CC4)cc3)nc21 [Compound 55, N^3-(2,6-Dimethyl-phenyl)-1-(3-methoxy-3-methyl-butyl)-N-6-[4-(methylpiperazin-1-yl)phenyl]-1H-pyrazolo[3,4-d]pyrimidine-3,6-diamine] | > 8.00 |  | > 8.00 | 7.00 to 8.00 |
| CCN(CC)CCCn1nc(Nc2c(C)cccc2C)c2cnc(Nc3ccccc3)nc21 [Compound 40, 1-(3-(diethylamino)propyl)-N^3-(2,6-dimethylphenyl)-N^6-phenyl-1H-pyrazolo[3,4-d]pyrimidine-3,6-diamine] | 7.00 to 8.00 |  | > 8.00 | < 7.00 |
| Cc1cccc(C)c1Nc1nn(CCCN2CCCCC2)c2nc(Nc3ccc(N4CCN(C)CC4)cc3)ncc12 [Compound 50, N^3-(2,6-Dimethyl-phenyl)-N^6-[4-(4-methyl-piperazin-1-yl)-phenyl]-1-(3-piperidin-1-yl-propyl)-1H-pyrazolo[3,4-d]pyrimidine-3,6-diamine] | 7.00 to 8.00 |  | > 8.00 | 7.00 to 8.00 |
| Ethyl-2-(3-(2,6-dimethylphenylamino)-6-(phenylamino)-1H-indazole-1-yl)acetate [Compound 64] | 7.00 to 8.00 |  | > 8.00 | < 7.00 |
| Cc1cccc(C)c1Nc1nn(CCC(O)CN2CCCC2)c2nc(Nc3ccccc3)ncc12 (stereo not drawn) [Compound 45, 4-(3-(2,6-dimethylphenylamino)-6-(phenylamino)-1H-pyrazolo[3,4-d]pyrimidin-1-yl)-1-(pyrrolidin-1-yl)butan-2-ol] | < 7.00 |  | > 8.00 | < 7.00 |
| N^3-(2,6-Dimethylphenyl)-N^6-phenyl-1-((tetrahydro-2H-pyran-4-yl)methyl)-1H-indazole-3,6-diamine [Compound 63] | 7.00 to 8.00 |  | > 8.00 | < 7.00 |
| Clc1cccc(Cl)c1Nc1nn(CCC2CCNCC2)c2nc(Nc3ccccc3)ncc12 [Compound 94, N^3-(2,6-dichlorophenyl)-N^6-phenyl-1-(2-(piperidin-4-yl)ethyl)-1H-pyrazolo[3,4-d]pyrimidine-3,6-diamine] | 7.00 to 8.00 |  | > 8.00 | < 7.00 |
